From ChEMBL document CHEMBL4251615, “Discovery of anilino-furo[2,3-d]pyrimidine derivatives as dual inhibitors of EGFR/HER2 tyrosine kinase and their anticancer activity” (Eur J Med Chem, 2018)

Columns and labels:
[1] = tested on: SNB-75; experiment: Growth inhibition of human SNB75 cells assessed as cell growth at 10 uM incubated for 48 hrs by sulforhodamine B assay relative to control; format: functional; conditions: SNB-75, 48 h, read-out: Activity
[2] = tested on: BT-549; experiment: Growth inhibition of human BT549 cells assessed as cell growth at 10 uM incubated for 48 hrs by sulforhodamine B assay relative to control; format: functional; conditions: BT-549, 48 h, read-out: Activity
[3] = tested on: HL-60(TB); experiment: Growth inhibition of human HL-60(TB) cells assessed as cell growth at 10 uM incubated for 48 hrs by sulforhodamine B assay relative to control; format: functional; conditions: HL-60, 48 h, read-out: Activity
[4] = molecular target: Epidermal growth factor receptor (Homo sapiens, UniProt P00533); experiment: Inhibition of recombinant human C-terminal His/N-terminal GST-tagged EGFR (668 to 1210 residues) expressed in baculovirus infected Sf9 cells at 10 uM using biotin-labeled poly[Glu:Tyr] (4:1) as substrate after 30 mins by Kinase-Glo plus luminescence assay relative to control
Chain of Epidermal growth factor receptor (P00533 whole entry, the tested form may be a part): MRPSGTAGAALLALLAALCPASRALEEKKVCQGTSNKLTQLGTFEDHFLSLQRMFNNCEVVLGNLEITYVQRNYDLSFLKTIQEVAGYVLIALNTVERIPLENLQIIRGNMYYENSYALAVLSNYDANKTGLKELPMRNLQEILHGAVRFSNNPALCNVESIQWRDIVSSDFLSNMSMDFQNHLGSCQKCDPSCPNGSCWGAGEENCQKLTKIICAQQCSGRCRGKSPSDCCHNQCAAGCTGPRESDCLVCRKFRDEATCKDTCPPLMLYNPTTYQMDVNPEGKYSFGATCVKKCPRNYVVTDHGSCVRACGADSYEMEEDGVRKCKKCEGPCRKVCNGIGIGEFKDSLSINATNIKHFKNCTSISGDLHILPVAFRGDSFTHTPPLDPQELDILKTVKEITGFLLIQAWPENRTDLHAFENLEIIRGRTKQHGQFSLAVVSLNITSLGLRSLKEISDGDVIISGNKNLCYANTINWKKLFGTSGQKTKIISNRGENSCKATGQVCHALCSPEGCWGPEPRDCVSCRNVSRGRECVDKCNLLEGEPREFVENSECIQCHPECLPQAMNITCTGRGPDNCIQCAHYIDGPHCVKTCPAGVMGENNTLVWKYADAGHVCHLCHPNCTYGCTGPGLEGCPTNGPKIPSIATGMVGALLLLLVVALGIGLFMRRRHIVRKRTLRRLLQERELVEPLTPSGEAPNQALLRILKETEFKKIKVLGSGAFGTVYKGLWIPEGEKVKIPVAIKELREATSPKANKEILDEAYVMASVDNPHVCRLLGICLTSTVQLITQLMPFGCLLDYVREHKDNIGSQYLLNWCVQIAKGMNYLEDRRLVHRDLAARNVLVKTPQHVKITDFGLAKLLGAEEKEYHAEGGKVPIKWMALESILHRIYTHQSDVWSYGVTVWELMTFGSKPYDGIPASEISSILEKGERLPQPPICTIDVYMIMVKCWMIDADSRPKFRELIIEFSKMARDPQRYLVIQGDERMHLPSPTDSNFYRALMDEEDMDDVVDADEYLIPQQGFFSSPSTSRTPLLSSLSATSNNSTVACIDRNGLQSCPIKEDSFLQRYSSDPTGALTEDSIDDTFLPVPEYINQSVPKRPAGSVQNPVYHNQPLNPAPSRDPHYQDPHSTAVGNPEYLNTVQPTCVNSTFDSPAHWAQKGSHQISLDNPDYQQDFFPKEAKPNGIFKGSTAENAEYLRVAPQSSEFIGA

[5] = tested on: SK-MEL-2; experiment: Growth inhibition of human SK-MEL-2 cells assessed as cell growth at 10 uM incubated for 48 hrs by sulforhodamine B assay relative to control; format: functional; conditions: SK-MEL-2, 48 h, read-out: Activity
[6] = tested on: Hs-578T; experiment: Growth inhibition of human Hs 578T cells assessed as cell growth at 10 uM incubated for 48 hrs by sulforhodamine B assay relative to control; format: functional; conditions: read-out: Activity
[7] = tested on: OVCAR-8; experiment: Growth inhibition of human OVCAR8 cells assessed as cell growth at 10 uM incubated for 48 hrs by sulforhodamine B assay relative to control; format: functional; conditions: OVCAR-8, 48 h, read-out: Activity
[8] = tested on: NCI-H322M; experiment: Growth inhibition of human NCI-H322M cells assessed as cell growth at 10 uM incubated for 48 hrs by sulforhodamine B assay relative to control; format: functional; conditions: read-out: Activity
[9] = tested on: M14; experiment: Growth inhibition of human M14 cells assessed as cell growth at 10 uM incubated for 48 hrs by sulforhodamine B assay relative to control; format: functional; conditions: M14, 48 h, read-out: Activity
[10] = tested on: ACHN; experiment: Growth inhibition of human ACHN cells assessed as cell growth at 10 uM incubated for 48 hrs by sulforhodamine B assay relative to control; format: functional; conditions: read-out: Activity
[11] = tested on: HCC 2998; experiment: Growth inhibition of human HCC2998 cells assessed as cell growth at 10 uM incubated for 48 hrs by sulforhodamine B assay relative to control; format: functional; conditions: HCC 2998, 48 h, read-out: Activity
[12] = tested on: NCI-H226; experiment: Growth inhibition of human NCI-H226 cells assessed as cell growth at 10 uM incubated for 48 hrs by sulforhodamine B assay relative to control; format: functional; conditions: NCI-H226, 48 h, read-out: Activity
[13] = tested on: HOP-92; experiment: Growth inhibition of human HOP92 cells assessed as cell growth at 10 uM incubated for 48 hrs by sulforhodamine B assay relative to control; format: functional; conditions: HOP-92, 48 h, read-out: Activity
[14] = tested on: A498; experiment: Growth inhibition of human A498 cells assessed as cell growth at 10 uM incubated for 48 hrs by sulforhodamine B assay relative to control; format: functional; conditions: A498, 48 h, read-out: Activity
[15] = tested on: MDA-MB-231; experiment: Growth inhibition of human MDA-MB-231 cells assessed as cell growth at 10 uM incubated for 48 hrs by sulforhodamine B assay relative to control; format: functional; conditions: MDA-MB-231, 48 h, read-out: Activity
[16] = tested on: DU-145; experiment: Growth inhibition of human DU145 cells assessed as cell growth at 10 uM incubated for 48 hrs by sulforhodamine B assay relative to control; format: functional; conditions: DU-145, 48 h, read-out: Activity
[17] = tested on: MDA-MB-468; experiment: Growth inhibition of human MDA-MB-468 cells assessed as cell growth at 10 uM incubated for 48 hrs by sulforhodamine B assay relative to control; format: functional; conditions: MDA-MB-468, 48 h, read-out: Activity
[18] = tested on: SK-OV-3; experiment: Growth inhibition of human SKOV3 cells assessed as cell growth at 10 uM incubated for 48 hrs by sulforhodamine B assay relative to control; format: functional; conditions: SK-OV-3, 48 h, read-out: Activity
[19] = tested on: U-251; experiment: Growth inhibition of human U251 cells assessed as cell growth at 10 uM incubated for 48 hrs by sulforhodamine B assay relative to control; format: functional; conditions: U-251, 48 h, read-out: Activity
[20] = tested on: TK-10; experiment: Growth inhibition of human TK10 cells assessed as cell growth at 10 uM incubated for 48 hrs by sulforhodamine B assay relative to control; format: functional; conditions: TK-10, 48 h, read-out: Activity
[21] = tested on: HT-29; experiment: Growth inhibition of human HT-29 cells assessed as cell growth at 10 uM incubated for 48 hrs by sulforhodamine B assay relative to control; format: functional; conditions: HT-29, 48 h, read-out: Activity
[22] = tested on: UACC-62; experiment: Growth inhibition of human UACC62 cells assessed as cell growth at 10 uM incubated for 48 hrs by sulforhodamine B assay relative to control; format: functional; conditions: UACC-62, 48 h, read-out: Activity
[23] = tested on: SN12C; experiment: Growth inhibition of human SN12C cells assessed as cell growth at 10 uM incubated for 48 hrs by sulforhodamine B assay relative to control; format: functional; conditions: read-out: Activity
[24] = tested on: HCT-116; experiment: Growth inhibition of human HCT116 cells assessed as cell growth at 10 uM incubated for 48 hrs by sulforhodamine B assay relative to control; format: functional; conditions: HCT-116, 48 h, read-out: Activity
[25] = tested on: NCI-H460; experiment: Growth inhibition of human NCI-H460 cells assessed as cell growth at 10 uM incubated for 48 hrs by sulforhodamine B assay relative to control; format: functional; conditions: NCI-H460, 48 h, read-out: Activity
[26] = tested on: KM12; experiment: Growth inhibition of human KM12 cells assessed as cell growth at 10 uM incubated for 48 hrs by sulforhodamine B assay relative to control; format: functional; conditions: KM12, 48 h, read-out: Activity

Structure (SMILES) | growth at 10 µM [1] | growth at 10 µM [2] | growth at 10 µM [3] | inhibition [4] | growth at 10 µM [5] | growth at 10 µM [6] | growth at 10 µM [7] | growth at 10 µM [8] | growth at 10 µM [9] | growth at 10 µM [10] | growth at 10 µM [11] | growth at 10 µM [12] | growth at 10 µM [13] | growth at 10 µM [14] | growth at 10 µM [15] | growth at 10 µM [16] | growth at 10 µM [17] | growth at 10 µM [18] | growth at 10 µM [19] | growth at 10 µM [20] | other results
Cc1oc2ncnc(Nc3cccc(F)c3)c2c1C(=O)O | 85.8% | 93.9% | 35.2% | 49% | 107% | 99.9% | 112% | 109% | 112% | 100% | 102% | 109% | 89.3% | 90.5% | 85% | 107% | 104% | 102% | 106% | 105% | growth at 10 µM [21]: 110%; growth at 10 µM [22]: 90.2%; growth at 10 µM [23]: 89.7%; growth at 10 µM [24]: 103%; growth at 10 µM [25]: 104%; growth at 10 µM [26]: 102%
CCOC(=O)c1c(C)oc2ncnc(Nc3cccc(F)c3)c12 | 107% | 94.2% | 76.4% | 2% | 92.9% | 99% | 105% | 106% | 98.2% | 109% | 103% | 101% | 88.3% | 75.9% | 91.7% | 99% | 96.5% | 101% | 106% | 95.9% | growth at 10 µM [21]: 89.8%; growth at 10 µM [22]: 84%; growth at 10 µM [23]: 89.1%; growth at 10 µM [24]: 88.1%; growth at 10 µM [25]: 101%; growth at 10 µM [26]: 100%
CCOC(=O)c1c(C)oc2ncnc(Nc3ccc(F)c(Cl)c3)c12 | 113% | 101% | 101% | 10% | 95.5% | 97% | 100% | 101% | 110% | 112% | 109% | 94.6% | 72.1% | 87.4% | 101% | 103% | 112% | 90.7% | 91.8% | 114% | growth at 10 µM [21]: 92.8%; growth at 10 µM [22]: 94.9%; growth at 10 µM [23]: 92.2%; growth at 10 µM [24]: 103%; growth at 10 µM [25]: 106%; growth at 10 µM [26]: 104%
Cc1cccc(Nc2ncnc3oc(C)c(C(=O)NCCN4CCOCC4)c23)c1 | 82.4% | 90.7% | 92.4% | 30% | 106% | 88.5% | 109% | 101% | 99.8% | 93.6% | 97.1% | 94.9% | 97.6% | 68.9% | 81.8% | 99.4% | 89.4% | 111% | 105% | 98.7% | growth at 10 µM [21]: 104%; growth at 10 µM [22]: 84.6%; growth at 10 µM [23]: 94.3%; growth at 10 µM [24]: 117%; growth at 10 µM [25]: 105%; growth at 10 µM [26]: 94.6%
Cc1oc2ncnc(Nc3ccccc3)c2c1C(=O)NCCO | 90.7% | 90.1% | 64.9% | 8% | 113% | 90.5% | 113% | 108% | 106% | 91.8% | 103% | 106% | 88.6% | 78.2% | 75% | 105% | 109% | 100% | 102% | 122% | growth at 10 µM [21]: 106%; growth at 10 µM [22]: 86.2%; growth at 10 µM [23]: 93.2%; growth at 10 µM [24]: 99.3%; growth at 10 µM [25]: 98.6%; growth at 10 µM [26]: 95.2%
